Source: PubChem BioAssay AID248 (DTP/NCI, 2004)
Inconclusive results and toxic doses are left out. Cut-off read from the data, not from the text of the source: active = T/C of 150% or more; inactive = T/C below 125%.

System: L1210 leukemia ip in BDF1 mice, survival T/C
Experiment: NCI In Vivo Anticancer Drug Screen. Data for tumor model L1210 Leukemia (intraperitoneal) in B6D2F1 (BDF1) mice
Settings: endpoint: mean survival time, higher = longer survival
In short: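 Antitumor effect is assessed in tumor-bearing animals. Survival in the compound arm is compared with a vehicle-dosed control arm and expressed as their quotient.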

[1] = dose: 12.5 mg/kg/injection, schedule: Q04DX003 (ip), vehicle: Klucel (hydroxypropylcellulose) (HPC)
[2] = dose: 25.0 mg/kg/injection, schedule: Q04DX003 (ip), vehicle: Klucel (hydroxypropylcellulose) (HPC)
[3] = dose: 100.0 mg/kg/injection, schedule: Q01DX001 (ip), vehicle: saline
[4] = dose: 200.0 mg/kg/injection, schedule: Q01DX001 (ip), vehicle: saline
[5] = dose: 400.0 mg/kg/injection, schedule: Q01DX001 (ip), vehicle: saline
[6] = dose: 100.0 mg/kg/injection, schedule: Q04DX002 (ip), vehicle: saline with Tween-80
[7] = dose: 200.0 mg/kg/injection, schedule: Q04DX002 (ip), vehicle: saline with Tween-80
[8] = dose: 400.0 mg/kg/injection, schedule: Q04DX002 (ip), vehicle: saline with Tween-80

Measured: T/C

CCCCCCCCCc1cc(=O)n(-c2ccc(C(=O)OCC)cc2)n1C
inactive: [1] 105 % of control | [2] 102 % of control | dose: 50.0 mg/kg/injection, schedule: Q04DX003 (ip), vehicle: Klucel (hydroxypropylcellulose) (HPC) 97 % of control

O=Cc1cc(Br)ccc1[N+](=O)[O-]
inactive: [3] 103 % of control | [4] 103 % of control | [5] 101 % of control

COC1OC2COC(c3ccccc3)OC2C(OS(=O)(=O)c2ccc(C)cc2)C1OC (stereo unspecified)
inactive: [6] 107 % of control | [7] 89 % of control | [8] 93 % of control

Cc1ccc(S(=O)(=O)N(Cl)Cl)cc1
inactive: dose: 6.25 mg/kg/injection, schedule: Q01DX009 (ip), vehicle: Klucel (hydroxypropylcellulose) (HPC) 115 % of control | dose: 6.25 mg/kg/injection, schedule: Q04DX003 (ip), vehicle: Klucel (hydroxypropylcellulose) (HPC) 94 % of control | [1] 98 % of control | dose: 25.0 mg/kg/injection, schedule: Q01DX009 (ip), vehicle: Klucel (hydroxypropylcellulose) (HPC) 94 % of control | [2] 102 % of control | [3] 110 % of control | [4] 101 % of control | [5] 108 % of control

Cc1ccc(NC(=O)NCCCl)c2c1CCC2
inactive: dose: 100.0 mg/kg/injection, schedule: Q01DX001 (ip), vehicle: Klucel (hydroxypropylcellulose) (HPC) 95 % of control | dose: 200.0 mg/kg/injection, schedule: Q01DX001 (ip), vehicle: Klucel (hydroxypropylcellulose) (HPC) 92 % of control | dose: 400.0 mg/kg/injection, schedule: Q01DX001 (ip), vehicle: Klucel (hydroxypropylcellulose) (HPC) 96 % of control

O=C1OC(c2ccco2)=N/C1=C\c1ccc(Cl)c(Cl)c1
inactive: [6] 108 % of control | [7] 105 % of control | [8] 108 % of control

CCCCCCC(=O)Nc1cccc(OC(=O)NC)c1
inactive: dose: 100.0 mg/kg/injection, schedule: Q04DX003 (ip), vehicle: saline with Tween-80 98 % of control | dose: 200.0 mg/kg/injection, schedule: Q04DX003 (ip), vehicle: saline with Tween-80 96 % of control | dose: 400.0 mg/kg/injection, schedule: Q04DX003 (ip), vehicle: saline with Tween-80 88 % of control
